Assay results reported in ChEMBL document CHEMBL1201862, “PubChem BioAssay data set” (2004).
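Cultured in 96-well plates, cells were exposed to test compound for 48 hours across five concentrations. At the GI50, growth is halved.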 Activity calls are given as the source filed them. Rule as the data show it: active = GI50 up to about 1.1 µM and inactive = higher.

Experiments:
Test in all cases: inhibition of tumour cell growth, NCI panel, 48 h
786-0 = test system: 786-0
SF-539 = test system: SF-539
CAKI-1 = test system: CAKI-1
SK-MEL-5 = test system: SK-MEL-5
SK-MEL-2 = test system: SK-MEL-2
NCI-H23 = test system: NCI-H23
SK-MEL-28 = test system: SK-MEL-28
SNB-19 = test system: SNB-19
MOLT-4 = test system: MOLT-4
HCT-116 = test system: HCT-116
RXF 393 = test system: RXF 393
OVCAR-3 = test system: OVCAR-3
Malme-3M = test system: Malme-3M
A549 = test system: A549
NCI-H226 = test system: NCI-H226
HOP-92 = test system: HOP-92
HCC 2998 = test system: HCC 2998

Measured: GI50

COC(=O)C1(C(=O)OC)CC(=O)c2cc3c(cc2-c2c(cc(OC)c(OC)c2OC)C1)OCO3
inactive: 786-0 > 211 µM | SF-539 > 211 µM | CAKI-1 > 211 µM | SK-MEL-5 123 µM | SK-MEL-2 > 211 µM | NCI-H23 > 211 µM | SK-MEL-28 > 211 µM | SNB-19 55.3 µM | MOLT-4 83.6 µM | HCT-116 111 µM | RXF 393 54.7 µM | OVCAR-3 98.2 µM | Malme-3M > 211 µM | A549 > 211 µM | NCI-H226 95.5 µM | HOP-92 26.8 µM | HCC 2998 > 211 µM

Cc1cc(C)c(S(=O)(=O)ONC(=O)OC(C)(C)C)c(C)c1
inactive: 786-0 > 100 µM | SF-539 > 100 µM | CAKI-1 > 100 µM | SK-MEL-5 > 100 µM | SK-MEL-2 > 100 µM | NCI-H23 > 100 µM | SK-MEL-28 > 100 µM | SNB-19 > 100 µM | MOLT-4 > 100 µM | HCT-116 > 100 µM | RXF 393 > 100 µM | OVCAR-3 > 100 µM | Malme-3M > 100 µM | A549 > 100 µM | HOP-92 > 100 µM | HCC 2998 > 100 µM

N[C@H](C(=O)O)[C@@H](Cl)CC(=O)O
inactive: 786-0 > 100 µM | SF-539 > 100 µM | CAKI-1 > 100 µM | SK-MEL-5 > 100 µM | SK-MEL-2 > 100 µM | NCI-H23 > 100 µM | SK-MEL-28 > 100 µM | SNB-19 > 100 µM | MOLT-4 > 100 µM | HCT-116 > 100 µM | RXF 393 > 100 µM | OVCAR-3 > 100 µM | Malme-3M > 100 µM | A549 > 100 µM | NCI-H226 > 100 µM | HOP-92 > 100 µM | HCC 2998 > 100 µM

COc1ccccc1NC(=O)C1=C(C)NC(C)=C(C(=O)Nc2ccccc2OC)C1c1ccc(C)cc1
inactive: 786-0 > 100 µM | SF-539 > 100 µM | CAKI-1 > 100 µM | SK-MEL-5 16.9 µM | SK-MEL-2 48.2 µM | NCI-H23 94.8 µM | SK-MEL-28 > 100 µM | SNB-19 > 100 µM | HCT-116 29.9 µM | RXF 393 35 µM | OVCAR-3 > 100 µM | Malme-3M > 100 µM | NCI-H226 10.5 µM | HOP-92 > 100 µM | HCC 2998 97.5 µM

CN(C)c1nc(N(C)C)n2nc(-c3ccccc3[N+](=O)[O-])nc2n1
inactive: 786-0 49.9 µM | SF-539 33 µM | CAKI-1 > 100 µM | SK-MEL-5 > 100 µM | SK-MEL-2 > 100 µM | NCI-H23 > 100 µM | SK-MEL-28 > 100 µM | SNB-19 > 100 µM | MOLT-4 > 100 µM | HCT-116 35.6 µM | RXF 393 > 100 µM | OVCAR-3 > 100 µM | Malme-3M > 100 µM | A549 > 100 µM | NCI-H226 > 100 µM | HOP-92 > 100 µM | HCC 2998 > 100 µM

O=C(Nc1ccc(F)cc1)C(=O)C(C1OC(=O)c2ccccc21)[N+](=O)[O-] (stereo not given)
inactive: 786-0 > 100 µM | SF-539 > 100 µM | CAKI-1 > 100 µM | SK-MEL-5 > 100 µM | SK-MEL-2 > 100 µM | NCI-H23 > 100 µM | SK-MEL-28 > 100 µM | SNB-19 > 100 µM | MOLT-4 > 100 µM | HCT-116 > 100 µM | RXF 393 > 100 µM | OVCAR-3 > 100 µM | Malme-3M > 100 µM | A549 > 100 µM | NCI-H226 > 100 µM | HOP-92 > 100 µM | HCC 2998 > 100 µM

CCC(=O)N(O)C(C)(C)C
inactive: 786-0 > 100 µM | SF-539 > 100 µM | CAKI-1 > 100 µM | SK-MEL-5 > 100 µM | NCI-H23 > 100 µM | SK-MEL-28 > 100 µM | SNB-19 > 100 µM | MOLT-4 > 100 µM | HCT-116 > 100 µM | RXF 393 > 100 µM | OVCAR-3 > 100 µM | Malme-3M > 100 µM | A549 > 100 µM | NCI-H226 > 100 µM | HOP-92 > 100 µM | HCC 2998 > 100 µM

O=C(Oc1ccc2c(-c3ccccc3)c(C(=O)Nc3ccc(Cl)cc3)c(=O)oc2c1)c1ccccc1
inactive: 786-0 > 100 µM | SF-539 > 100 µM | SK-MEL-5 > 100 µM | SK-MEL-2 > 100 µM | NCI-H23 > 100 µM | SK-MEL-28 > 100 µM | SNB-19 > 100 µM | MOLT-4 74.1 µM | HCT-116 > 100 µM | RXF 393 > 100 µM | OVCAR-3 > 100 µM | Malme-3M > 100 µM | A549 > 100 µM | NCI-H226 > 100 µM

COC1=CC(=O)[C@]2(C)[C@H](C1=O)C(C)[C@H]2c1ccc(OC)cc1 (stereo not given in full)
inactive: 786-0 > 100 µM | SF-539 > 100 µM | CAKI-1 > 100 µM | SK-MEL-5 > 100 µM | SK-MEL-2 > 100 µM | NCI-H23 > 100 µM | SK-MEL-28 > 100 µM | SNB-19 > 100 µM | MOLT-4 > 100 µM | RXF 393 > 100 µM | OVCAR-3 > 100 µM | Malme-3M > 100 µM | A549 > 100 µM | NCI-H226 > 100 µM | HOP-92 > 100 µM | HCC 2998 > 100 µM

CCCC(O)c1ccc2[nH]c3c(C)cc([N+](=O)[O-])c(C)c3c2c1 (stereo not given)
inactive: 786-0 27.4 µM | SF-539 > 100 µM | CAKI-1 > 100 µM | SK-MEL-5 > 100 µM | SK-MEL-2 > 100 µM | NCI-H23 > 100 µM | SK-MEL-28 > 100 µM | SNB-19 > 100 µM | MOLT-4 > 100 µM | HCT-116 > 100 µM | OVCAR-3 83.2 µM | Malme-3M > 100 µM | A549 39.3 µM | NCI-H226 > 100 µM | HCC 2998 > 100 µM

CCOC(=O)C(CC/C=C\c1ccccc1)N1CCC[C@H]1C(=O)OC (stereo not given in full)
inactive: 786-0 > 100 µM | SF-539 > 100 µM | CAKI-1 > 100 µM | SK-MEL-5 > 100 µM | SK-MEL-2 > 100 µM | NCI-H23 > 100 µM | SK-MEL-28 > 100 µM | SNB-19 > 100 µM | MOLT-4 39.1 µM | HCT-116 > 100 µM | RXF 393 > 100 µM | OVCAR-3 > 100 µM | Malme-3M > 100 µM | A549 > 100 µM | NCI-H226 > 100 µM | HOP-92 > 100 µM | HCC 2998 > 100 µM

C[Si](C)(C)/N=C1\N2C(=NC1(C(F)(F)F)C(F)(F)F)Sc1ccccc12
inactive: 786-0 > 50 µM | SF-539 > 50 µM | CAKI-1 > 50 µM | SK-MEL-5 > 50 µM | SK-MEL-2 > 50 µM | NCI-H23 > 50 µM | SNB-19 > 50 µM | MOLT-4 > 50 µM | HCT-116 > 50 µM | RXF 393 > 50 µM | OVCAR-3 > 50 µM | Malme-3M > 50 µM | A549 > 50 µM | NCI-H226 > 50 µM | HOP-92 29.9 µM | HCC 2998 > 50 µM

O=C1C(Cl)C(c2cccc(O)c2)N1n1cnc2ccccc2c1=O (stereo not given)
inactive: 786-0 > 100 µM | CAKI-1 76 µM | SK-MEL-5 > 100 µM | SK-MEL-2 > 100 µM | NCI-H23 > 100 µM | SK-MEL-28 > 100 µM | SNB-19 49.5 µM | MOLT-4 57.5 µM | HCT-116 89.9 µM | RXF 393 > 100 µM | OVCAR-3 > 100 µM | Malme-3M > 100 µM | A549 > 100 µM | NCI-H226 21.6 µM | HCC 2998 > 100 µM

CC1CC(=O)c2c(ccc3c2C(=O)c2cccc(O)c2C3=O)C1 (stereo not given)
inactive: 786-0 7 µM | SF-539 14.8 µM | SK-MEL-5 2.31 µM | SK-MEL-2 8.81 µM | NCI-H23 5.26 µM | SK-MEL-28 13.1 µM | SNB-19 12.2 µM | MOLT-4 2.13 µM | HCT-116 5.08 µM | OVCAR-3 3.46 µM | Malme-3M 6.93 µM | A549 7.16 µM | NCI-H226 14.4 µM | HOP-92 1.79 µM | HCC 2998 10.4 µM

O=[N+]([O-])c1ccc2nc(/C(=N/Nc3ccccc3)C(O)c3ccco3)c(O)nc2c1 (stereo not given)
inactive: 786-0 > 100 µM | SF-539 50.2 µM | CAKI-1 85.5 µM | SK-MEL-5 44.5 µM | SK-MEL-2 > 100 µM | SNB-19 > 100 µM | MOLT-4 > 100 µM | HCT-116 > 100 µM | RXF 393 29.5 µM | Malme-3M > 100 µM | A549 > 100 µM | NCI-H226 15.7 µM | HCC 2998 > 100 µM

COC(=O)C1=C(C(=O)OC)C(C(=O)OC)C(C(=O)OC)=C1C(=O)OC
inactive: 786-0 > 100 µM | SF-539 > 100 µM | CAKI-1 > 100 µM | SK-MEL-5 > 100 µM | SK-MEL-2 > 100 µM | NCI-H23 > 100 µM | SK-MEL-28 > 100 µM | SNB-19 > 100 µM | MOLT-4 > 100 µM | RXF 393 > 100 µM | OVCAR-3 > 100 µM | Malme-3M > 100 µM | A549 > 100 µM | HOP-92 > 100 µM | HCC 2998 > 100 µM

O=C1C=CC2(CCC23C=CC(=O)O3)O1 (stereo not given)
inactive: 786-0 > 100 µM | SF-539 > 100 µM | SK-MEL-2 > 100 µM | NCI-H23 > 100 µM | SK-MEL-28 > 100 µM | SNB-19 > 100 µM | MOLT-4 > 100 µM | HCT-116 > 100 µM | RXF 393 > 100 µM | OVCAR-3 > 100 µM | Malme-3M > 100 µM | A549 > 100 µM | NCI-H226 > 100 µM | HCC 2998 > 100 µM
